Kd data for one compound are collected here from PMC10256801, “A multicentric consortium study demonstrates that dimethylarginine dimethylaminohydrolase 2 is not a dimethylarginine dimethylaminohydrolase” (Nature Communications, 2023).

This experiment deals with T1, Dimethylarginine dimethylaminohydrolase 1 (DDAH1) (Homo sapiens, UniProt O94760).
T1 construct: N-terminal fusion protein with glutathione S-transferase (DDAH1-GST)
The experiment is described as follows: MicroScale Thermophoresis (MST) with purified recombinant protein; hydrolysis to L-citrulline also measured. The following applies: read-out: Binding status Kd (μM) ± confidence values. (In general: MST reads how a fluorescent partner responds to local heating, with and without ligand.)

T1 sequence (O94760 whole entry, the tested form may be a part): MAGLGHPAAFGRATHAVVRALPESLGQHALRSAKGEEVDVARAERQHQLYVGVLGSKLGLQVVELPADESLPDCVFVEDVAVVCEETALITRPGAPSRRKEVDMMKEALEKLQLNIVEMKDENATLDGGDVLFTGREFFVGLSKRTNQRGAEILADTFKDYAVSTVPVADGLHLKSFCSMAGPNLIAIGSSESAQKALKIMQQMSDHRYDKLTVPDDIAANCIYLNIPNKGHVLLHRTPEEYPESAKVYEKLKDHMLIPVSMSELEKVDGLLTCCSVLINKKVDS

In general, Kd refers to the concentration at which binding is half-saturated. In the case of `CN(C)C(=N)NCCC[C@H](N)C(=O)O` [ADMA], the Kd was 4.27 ± 0.46 µM.
